# Reference: patent US7566732B2, “Rhodanine compositions for use as antiviral agents” (priority 2003, dated 2009)
# Biological target: EVp28 (Gst-Evp28) ubiquitin ligase (Ectromelia virus, UniProt Q85318)
# Experiment: biochemical
row,SMILES,IC50 [µM]
1,"O=C1/C(=C\c2ccc(-c3cccc(C(F)(F)F)c3)o2)SC(=S)N1Cc1ccccc1 [Compound 54, (5E)-3-benzyl-2-thioxo-5-({5-[3-(trifluoromethyl)phenyl]-2-furyl}methylene)-1,3-thiazolidin-4-one]",0.016
2,O=C1/C(=C\c2nc3ccccc3[nH]2)SC(=S)N1c1ccc(F)cc1 [Compound 307],0.092
